In US10717716B2, “1,3,4-oxadiazole derivative compounds as histone deacetylase 6 inhibitor, and the pharmaceutical composition comprising the same” (Chong Kun Dang Pharmaceutical Corp., priority 2015, dated 2020):

Target: T1, human recombinant HDAC6 (Homo sapiens, UniProt Q9UBN7)
T1 construct: purchased Calbiochem 382180
T1 sequence (Q9UBN7 1-1215): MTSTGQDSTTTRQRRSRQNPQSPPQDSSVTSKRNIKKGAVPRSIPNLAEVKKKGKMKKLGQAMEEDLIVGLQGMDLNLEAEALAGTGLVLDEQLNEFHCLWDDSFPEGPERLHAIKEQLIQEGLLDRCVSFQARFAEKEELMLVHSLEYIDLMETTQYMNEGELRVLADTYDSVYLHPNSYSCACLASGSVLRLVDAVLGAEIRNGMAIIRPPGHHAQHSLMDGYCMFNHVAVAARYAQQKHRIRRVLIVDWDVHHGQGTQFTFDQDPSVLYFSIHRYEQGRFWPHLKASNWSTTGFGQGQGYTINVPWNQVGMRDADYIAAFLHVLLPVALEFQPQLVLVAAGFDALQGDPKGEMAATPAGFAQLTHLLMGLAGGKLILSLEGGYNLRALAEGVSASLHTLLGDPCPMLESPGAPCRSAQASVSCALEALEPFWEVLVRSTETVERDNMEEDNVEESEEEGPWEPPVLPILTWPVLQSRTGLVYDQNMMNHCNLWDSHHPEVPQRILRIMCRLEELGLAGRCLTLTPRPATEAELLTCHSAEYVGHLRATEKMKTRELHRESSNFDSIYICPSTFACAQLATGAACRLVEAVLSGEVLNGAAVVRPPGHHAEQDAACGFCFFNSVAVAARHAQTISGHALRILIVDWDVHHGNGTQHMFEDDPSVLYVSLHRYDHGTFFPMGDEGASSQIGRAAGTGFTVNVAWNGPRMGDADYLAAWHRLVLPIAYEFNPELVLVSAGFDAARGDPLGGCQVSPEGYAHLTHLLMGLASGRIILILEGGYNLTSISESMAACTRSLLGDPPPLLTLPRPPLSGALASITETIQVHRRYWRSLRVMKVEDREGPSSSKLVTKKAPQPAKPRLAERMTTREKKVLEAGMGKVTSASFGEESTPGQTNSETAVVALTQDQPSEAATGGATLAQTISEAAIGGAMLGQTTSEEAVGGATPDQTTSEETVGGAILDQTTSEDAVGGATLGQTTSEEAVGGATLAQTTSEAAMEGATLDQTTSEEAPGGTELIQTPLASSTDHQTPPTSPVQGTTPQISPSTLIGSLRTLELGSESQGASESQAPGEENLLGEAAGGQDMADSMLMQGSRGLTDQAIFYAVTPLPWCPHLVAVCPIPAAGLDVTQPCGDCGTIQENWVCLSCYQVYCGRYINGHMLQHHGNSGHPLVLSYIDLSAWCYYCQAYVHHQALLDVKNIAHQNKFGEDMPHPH
Assay: HDAC6 enzyme activity inhibition assay (HDAC Fluorimetric Drug Discovery Kit)
Type: biochemical
Details: for HDAC6 selectivity (fold): HDAC6 over HDAC1; for IC50: human recombinant HDAC6, same protocol as HDAC1, read-out: HDAC6
Outline: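 Fluorimetric deacetylase assay: 5-fold serial compound dilutions, 0.3 μg recombinant human enzyme (HDAC1 or HDAC6, same protocol), 10 μM Fluor de Lys-SIRT1 substrate, 60 min at 30 °C. Signal developed 30 min, measured at 360/460 nm; IC50 values derived.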

Row | Structure (SMILES) | HDAC6 selectivity (fold) | IC50 [nM]
1 | CC(C)COC(=O)N(Cc1ccc(-c2nnc(C(F)F)o2)cc1)c1ccccc1 [Compound 21570, Isobutyl (4-(5-(difluoromethyl)-1,3,4-oxadiazol-2-yl)benzyl)(phenyl)carbamate] | 32 | 309
2 | CN(CCO)C(=O)N(Cc1ccc(-c2nnc(C(F)F)o2)cc1)c1ccccc1 [Compound 21585, 1-(4-(5-(Difluoromethyl)-1,3,4-oxadiazol-2-yl)benzyl)-3-(2-hydroxyethyl)-3-methyl-1-phenylurea] | 370 | 27
3 | O=C(N1CCOCC1)N(Cc1ccc(-c2nnc(C(F)F)o2)cc1F)c1ccc(Cl)cc1 [Compound 21849, N-(4-chlorophenyl)-N-(4-(5-(difluoromethyl)-1,3,4-oxadiazol-2-yl)-2-fluorobenzyl)morpholine-4-carboxamide] | 95 | 106
4 | O=C(N1CCN(C2COC2)CC1)N(Cc1ccc(-c2nnc(C(F)F)o2)cc1F)c1ccccc1 [Compound 21955, N-(4-(5-(Difluoromethyl)-1,3,4-oxadiazol-2-yl)-2-fluorobenzyl)-4-(oxetan-3-yl)-N-phenylpiperazine-1-carboxamide] | 113 | 89
5 | O=C(N1CCN(Cc2ccccc2)CC1)N(Cc1ccc(-c2nnc(C(F)(F)F)o2)cc1)c1ccccc1 [Compound 21344, 4-Benzyl-N-phenyl-N-(4-(5-(trifluoromethyl)-1,3,4-oxadiazol-2-yl)benzyl)piperazine-1-carboxamide] | 12 | 830
6 | O=C(N1CCOCC1)N(Cc1ccc(-c2nnc(C(F)(F)F)o2)cc1)c1cccc(C(F)(F)F)n1 [Compound 21408, N-(4-(5-(trifluoromethyl)-1,3,4-oxadiazol-2-yl)benzyl)-N-(6-(trifluoromethyl)pyridin-2-yl)morpholine-4-carboxamide] | 14 | 706
7 | CC(=O)N1CC2(CCN(C(=O)N(Cc3ccc(-c4nnc(C(F)(F)F)o4)cc3)c3ccccc3)CC2)C1 [Compound 21418, 2-Acetyl-N-phenyl-N-(4-(5-(trifluoromethyl)-1,3,4-oxadiazol-2-yl)benzyl)-2,7-diazaspiro[3.5]nonane-7-carboxamide] | 65 | 154
8 | CN1CCC(c2ccc(N(Cc3ccc(-c4nnc(C(F)F)o4)cc3F)C(=O)N3CCS(=O)(=O)CC3)cc2)CC1 [Compound 21970, N-(4-(5-(difluoromethyl)-1,3,4-oxadiazol-2-yl)-2-fluorobenzyl)-N-(4-(1-methylpiperidin-4-yl)phenyl)thiomorpholine-4-carboxamide 1,1-dioxide] | 6 | 1550
9 | CN1CCCN(C(=O)N(Cc2ccc(-c3nnc(C(F)(F)F)o3)cc2)c2ccccc2)CC1 [Compound 21379, 4-Methyl-N-phenyl-N-(4-(5-(trifluoromethyl)-1,3,4-oxadiazol-2-yl)benzyl)-1,4-diazepane-1-carboxamide] | 132 | 76
10 | CC(C)c1nc2ccc(N(Cc3ccc(-c4nnc(C(F)F)o4)cc3F)C(=O)N3CCS(=O)(=O)CC3)cc2s1 [Compound 21813, N-(4-(5-(Difluoromethyl)-1,3,4-oxadiazol-2-yl)-2-fluorobenzyl)-N-(2-isopropylbenzo[d]thiazol-6-yl)thiomorpholine-4-carboxamide 1,1-dioxide] | 30 | 330
11 | O=C(NCCN1CCCN(Cc2ccccc2)CC1)N(Cc1ccc(-c2nnc(C(F)F)o2)cc1F)c1ccccc1 [Compound 22000, 3-(2-(4-Benzyl-1,4-diazepan-1-yl)ethyl)-1-(4-(5-(difluoromethyl)-1,3,4-oxadiazol-2-yl)-2-fluorobenzyl)-1-phenylurea] | 61 | 165
12 | CCCCN(Cc1ccc(-c2nnc(C(F)F)o2)cc1)C(=O)Nc1ccccc1 [Compound 21576, 1-Butyl-1-(4-(5-(difluoromethyl)-1,3,4-oxadiazol-2-yl)benzyl)-3-phenylurea] | 24 | 409
13 | CN1CCN(C(=O)N(Cc2ccc(-c3nnc(C(F)F)o3)cc2F)c2cccc3cnn(C)c23)CC1 [Compound 21707, N-(4-(5-(Difluoromethyl)-1,3,4-oxadiazol-2-yl)-2-fluorobenzyl)-4-methyl-N-(1-methyl-1H-indazol-7-yl)piperazine-1-carboxamide] | 199 | 50
14 | CCc1ccc(N(Cc2ccc(-c3nnc(C(F)F)o3)cc2F)C(=O)N2CCS(=O)(=O)CC2)cc1 [Compound 21512, N-(4-(5-(difluoromethyl)-1,3,4-oxadiazol-2-yl)-2-fluorobenzyl)-N-(4-ethylphenyl)thiomorpholine-4-carboxamide 1,1-dioxide] | 108 | 93
15 | Cc1ccccc1N(Cc1ccc(-c2nnc(C(F)(F)F)o2)cc1)C(=O)N1CCS(=O)(=O)CC1 [Compound 21451, N-(o-tolyl)-N-(4-(5-(trifluoromethyl)-1,3,4-oxadiazol-2-yl)benzyl)thiomorpholine-4-carboxamide 1,1-dioxide] | 30 | 333

Continued by falling IC50, values first:

Row | HDAC6 selectivity (fold) | IC50 [nM] | Structure (SMILES)
16 | 215 | 46 | Cc1cccc(N(Cc2ccc(-c3nnc(C(F)F)o3)cc2F)C(=O)N2CC3(COC3)C2)c1 [Compound 21760, N-(4-(5-(difluoromethyl)-1,3,4-oxadiazol-2-yl)-2-fluorobenzyl)-N-(m-tolyl)-2-oxa-6-azaspiro[3.3]heptane-6-carboxamide]
17 | 227 | 44 | CN1CCN(C(=O)N(Cc2ccc(-c3nnc(C(F)F)o3)cc2F)c2cccc(-c3ccncc3)c2)CC1 [Compound 21535, N-(4-(5-(difluoromethyl)-1,3,4-oxadiazol-2-yl)-2-fluorobenzyl)-4-methyl-N-(3-(pyridin-4-yl)phenyl)piperazine-1-carboxamide]
18 | 244 | 41 | Cc1ccccc1N(Cc1ccc(-c2nnc(C(F)F)o2)cc1F)C(=O)N1CCN(C)CC1 [Compound 21469, N-(4-(5-(difluoromethyl)-1,3,4-oxadiazol-2-yl)-2-fluorobenzyl)-4-methyl-N-(o-tolyl)piperazine-1-carboxamide]
19 | 294 | 34 | O=C(N1CC2(CCNCC2)C1)N(Cc1ccc(-c2nnc(C(F)F)o2)cc1F)c1ccccc1 [Compound 21497, N-(4-(5-(difluoromethyl)-1,3,4-oxadiazol-2-yl)-2-fluorobenzyl)-N-phenyl-2,7-diazaspiro[3.5]nonane-2-carboxamide]
20 | 357 | 28 | CN1CCN(C(=O)N(Cc2ccc(-c3nnc(C(F)F)o3)cn2)c2ccccc2)CC1 [Compound 21527, N-((5-(5-(difluoromethyl)-1,3,4-oxadiazol-2-yl)pyridin-2-yl)methyl)-4-methyl-N-phenylpiperazine-1-carboxamide]
21 | 555 | 18 | CCN1CCN(C(=O)N(Cc2ccc(-c3nnc(C(F)F)o3)cn2)c2cccc(F)c2)CC1 [Compound 21885, N-((5-(5-(Difluoromethyl)-1,3,4-oxadiazol-2-yl)pyridin-2-yl)methyl)-4-ethyl-N-(3-fluorophenyl)piperazine-1-carboxamide]
22 | 556 | 18 | CN1CCN(C(=O)N(Cc2ccc(-c3nnc(C(F)F)o3)cc2F)c2cccc(-c3cccnc3)c2)CC1 [Compound 21536, N-(4-(5-(difluoromethyl)-1,3,4-oxadiazol-2-yl)-2-fluorobenzyl)-4-methyl-N-(3-(pyridin-3-yl)phenyl)piperazine-1-carboxamide]
23 | 690 | 15 | CCN1CCN(C(=O)N(Cc2ccc(-c3nnc(C(F)F)o3)cc2F)c2cccc(F)c2F)CC1 [Compound 21655, N-(4-(5-(difluoromethyl)-1,3,4-oxadiazol-2-yl)-2-fluorobenzyl)-N-(2,3-difluorophenyl)-4-ethylpiperazine-1-carboxamide]
